From publication PMC7356998, “Intrinsic Dissolution Rate Profiling of Poorly Water-Soluble Compounds in Biorelevant Dissolution Media” (Pharmaceutics, 2020)
In brackets after ≈: the same amount, converted by molar mass.

Key:
[1] = Intrinsic dissolution rate from miniaturized discs (DIDR), μDiss Profiler; type: physicochemical; settings: disc (D), 100 rpm, mean ± SD
Method: Dissolution experiments were carried out in a small-scale dissolution apparatus using in situ fiber optic probes to measure the amount of drug dissolved over time by UV absorbance (μDiss Profiler, Pion Inc., Billerica, MA, USA). Drug dissolution was carried out from suspensions (S) or discs (D) depending on the solubility of the compound in the biorelevant media studied (Table 3). […] Standard curves were established by adding aliquots of DMSO stock solutions of the compounds to 3 mL of biorelevant medium, respectively. Dissolution media were prepared following the protocol provided by Biorelevant.com Ltd. and used within 48 h after their preparation. The media were incubated at 37 °C for at least one hour prior to use in the dissolution experiments. The hydrodynamic diameter of the micelles/vesicles formed in the biorelevant media were measured by DLS (Table 2). […] Stirring was turned off while measuring the UV absorbance for each aliquot and the standard curve was established based on six aliquots. […] Intrinsic dissolution rates will henceforth be denoted 'IDR' for both SIDR and DIDR values determined in this study (see Table 3 for details).

physchem = settings: 37 °C, pH 6.5, fassif, thermodynamic from solid
Method: In these experiments, an excess amount of drug was added to triplicate Eppendorf tubes containing 1 mL of the respective dissolution medium. The tubes were vortexed and placed in a 37 °C incubator. Samples for HPLC analysis were taken 24, 48, and 72 h (triplicates at each time point) after initiation of the experiment to ensure that equilibrium had been reached. The samples were centrifuged at 37 °C, 23,000 g for 10 min (Heraeus Megafuge 8R, Thermo Scientific, Waltham, MA, USA). The supernatant was sampled, diluted 1:1 with acetonitrile, and kept refrigerated until HPLC analysis. […] The injection volumes were 20 μL.

Q: For `C#C[C@]1(O)CC[C@H]2[C@@H]3CCc4cc(O)ccc4[C@H]3CC[C@@]21C` [Ethinylestradiol], which IDRFaSSIF-V1 ([1]; FaSSIF-V1 pH 6.5, 37 °C) is on record?
A: Its IDRFaSSIF-V1 is 3.2 ±0.1 μg/min/cm^2.

Q: What about the IDRFaSSIF-V2 ([1]; FaSSIF-V2 pH 6.5, 37 °C) of the same molecule?
A: Its IDRFaSSIF-V2 is 6.6 ± 0.8 μg/min/cm^2.

Q: What about the solubility thermodynamic (physchem) of the same molecule?
A: The solubility thermodynamic was 18.7 ± 1.3 µg/mL (≈ 63.1 µM).
